Experimental findings from ChEMBL document CHEMBL3832552, “DailyMed|setid=e3780ba1-46ef-410c-b2fc-f1ffbfb598f3 | SULAR - nisoldipine tablet, film coated, extended release|Physicians Total Care, Inc” are described below.

This data set can be described thus: Evaluation of pharmacokinetic parameters for Nisoldipine following oral administration of 17 to 51 mg of Nisoldipine extended release tablets. It counts as ADME, organism-based. The settings on record: human, in vivo, dose 17-51 mg, dosed compound id 7, dosed compound name NISOLDIPINE, tissue Plasma.

As to `COC(=O)C1=C(C)NC(C)=C(C(=O)OCC(C)C)C1c1ccccc1[N+](=O)[O-]` (stereo not drawn) [NISOLDIPINE], the Tmax – broadly, the time at which the peak concentration occurs – worked out at 9.2 h and the bioavailability – broadly, dose-corrected exposure relative to a reference, in per cent – was 5%. For the same molecule, where the note is “read-out: t1/2-elimination (converted)”, the half-life was 13.7 h.
